Where two headings read alike, the source gives them in different places.
Experiments:
[1] = tested on: scopolamine induced deficit in mice; assay: Morris Water Maze, scopolamine-induced memory (spatial) deficit; type: in vivo, male CD-1 mice
Description: Compounds of the present invention were tested in the Morris Water Navigation Task to characterize the cognitive-enhancing properties, namely through a chemically-induced memory (spatial) deficit task in the mouse.
The animals were male CD-1 mice (Charles River, Raleigh, N.C., USA), with 25-30 g body weight range on receipt. Animals were stabilized for at least 5 days after delivery in plastic cages on alpha-dry bedding with free access to food and water.
Test Compound, (2S,4E)-N-methyl-5-(5-((3R)-1-(4,4,4-trifluorobutanoyl)pyrrolidin-3-yloxy)-6-chloro-3-pyridinyl)-4-penten-2-amine, or a pharmaceutically acceptable salt thereof, such as the hemi-galactarate, was dissolved in deionized water (salt/base ratio=1.25).
The treatment schedule included scopolamine (0.75 mg/kg; s.c.) administered 15 minutes before the first training session each training day in combination with Test Compound (0.3, 1, 3 mg/kg of base) administered i.g. 25 minutes before the first training session each training day.
Scopolamine (0.75 mg/kg; s.c.) alone was administered 15 minutes before the training session each training day.
Cognitive activity was evaluated using an acquisition procedure in the Morris water maze whereby animals are administered a cognitively impairing compound (scopolamine) alone or in combination with a Test Compound during training sessions on days 1-4. Performance is evaluated on day 5 during a probe trial without any drug on board.
Preliminary analysis used one-way analysis of variance followed by post-hoc t-tests (Dunnetts) where applicable.

[2] = tested on: memory (recognition) task in the rat; assay: Object recognition task (NOR); type: in vivo, male Sprague-Dawley rats
Description: The compounds of the present invention were assessed for cognitive enhancing properties in the object recognition task in rats. In more detail, the compounds of the present invention, specifically Test Compound, (2S,4E)-N-methyl-5-(5-((3R)-1-(4,4,4-trifluorobutanoyl)pyrrolidin-3-yloxy)-6-chloro-3-pyridinyl)-4-penten-2-amine, or a pharmaceutically acceptable salt thereof, such as the hemi-galactarate, were tested to characterize the cognitive-enhancing properties of in a memory (recognition) task in the rat following oral dosing. Reference is made, for example, to Ennaceur A., et al., (1988), A New One-Trial Test for Neurobiological Studies of Memory in Rats, Behavioral Brain Research, 31, pp. 47-59.
The animals used were male Sprague-Dawley rats (Charles River, Raleigh, N.C., USA), of 134-173 g body weight range on receipt. The animals were stabilized for at least 6 days after delivery in plastic cages on alpha-dry bedding with access to food and water (2 per cage).
The Test Compound was dissolved in deionized water. The treatment schedule was 0.001, 0.01 and 0.1 mg/kg of base (salt/base ratio=1.25; equivalent to […]) or vehicle was administered p.o. 6H before exploratory, acquisition, and recall object recognition trials. All treatments were separated by 24 h, however although the acclimation and acquisition trials were separated by 24 h, the recall trial occurred 30 h after the acquisition trial (i.e. 6 h after the third dose).
The method of evaluation included cognitive activity using the method of Luine et al. A statistical analysis was performed using parametric distribution (exploration time): Student's t-test; (% RI): Kruskall-Wallace One-way ANOVA on Ranks with Dunn's method for post-hoc analyses.

Human α4β2 = molecular target: T1, Human α4β2 (Homo sapiens, UniProt P17787+P43681); assay: Competition binding to receptors in membrane preparations, human α4β2 ([3H]-nicotine)
T1 construct: expressed in transfected cells; obtained from Dr. Ron Lukas, Barrow Neurological Institute
Description: (§1) SH-EP1/human α4β2 (Eaton et al., 2003), SH-EP1/human α4β4 (Gentry et al., 2003), SH-EP1/α6β3β4α5 (Grinevich et al., 2005), TE671/RD and SH-SY5Y cell lines (obtained from Dr. Ron Lukas, Barrow Neurological Institute) were maintained in proliferative growth phase in Dulbecco's modified Eagle's medium (Gibco/BRL) with 10% horse serum (Gibco BRL), 5% fetal bovine serum (HyClone, Logan Utah), 1 mM sodium pyruvate, 4 mM L-glutamine. For maintenance of stable transfectants, the α4β2 and α4β4 cell media was supplemented with 0.25 mg/mL zeocin and 0.13 mg/mL hygromycin B. Selection was maintained for the α6β3β4α5 cells with 0.25 mg/mL of zeocin, 0.13 mg/mL of hygromycin B, 0.4 mg/mL of geneticin, and 0.2 mg/mL of blasticidin. HEK/human α7/RIC3 cells (obtained from J. Lindstrom, U. Pennsylvania) were maintained in proliferative growth phase in Dulbecco's modified Eagle's medium (Gibco/BRL) with 10% fetal bovine serum (HyClone, Logan Utah), 1 mM sodium pyruvate, 4 mM L-glutamine, 0.4 mg/mL geneticin; 0.2 mg/ml hygromycin B.
(§2) Cells were harvested in ice-cold PBS, pH 7.4, then homogenized with a polytron (Brinkmann Instruments, Westbury, N.Y.). Homongenates were centrifuged at 40,000 g for 20 minutes (4° C.). The pellet was resuspended in PBS and protein concentration determined using the Pierce BCA Protein Assay kit (Pierce Biotechnology, Rockford, Ill.).
(§3) Binding to nicotinic receptors was assayed on membranes using standard methods adapted from published procedures (Lippiello and Fernandes, 1986; Davies et al., 1999). In brief, membranes were reconstituted from frozen stocks (approximately 0.2 mg protein) and incubated for 2 h on ice in […] assay buffer (PBS) in the presence of competitor compound (0.001 nM to […]) and radioligand. [^3H]-nicotine (L-(−)-[N-methyl-3H]-nicotine, 69.5 Ci/mmol, Perkin-Elmer Life Sciences) was used for human α4β2 binding studies. [^3H]-epibatidine (52 Ci/mmol, Perkin-Elmer Life Sciences) was used for binding studies at the other receptor subtypes. Incubation was terminated by rapid filtration on a multimanifold tissue harvester (Brandel, Gaithersburg, Md.) using GF/B filters presoaked in 0.33% polyethyleneimine (w/v) to reduce non-specific binding. Filters were washed 3 times and the radioactivity retained was determined by liquid scintillation counting.
(§4) Binding data were expressed as percent total control binding. Replicates for each point were averaged and plotted against the log of drug concentration. The IC50 (concentration of the compound that produces 50% inhibition of binding) was determined by least squares non-linear regression using GraphPad Prism software (GraphPAD, San Diego, Calif.). Ki was calculated using the Cheng-Prusoff equation (Cheng and Prusoff, 1973).

Human α7 nAChR = molecular target: T2, Human α7 nAChR (Homo sapiens, UniProt P36544); assay: Competition binding to receptors in membrane preparations, human α7 ([3H]-epibatidine)
T2 construct: expressed in transfected cells; host or cells: HEK cells co-expressing RIC3 (from J. Lindstrom, U. Pennsylvania)
Description: as §1, §2, §3, §4

Human Ganglion = molecular target: T3, Human Ganglion (Homo sapiens, UniProt P30926+P32297); assay: Competition binding to receptors in membrane preparations, human ganglion subtype ([3H]-epibatidine)
T3 construct: endogenous in cells
Description: as §1, §2, §3, §4

Rat Ganglion = Rat Ganglion (Rattus norvegicus, UniProt P04757+P12392); assay: Competition binding to receptors in membrane preparations, rat ganglion subtype ([3H]-epibatidine)
Description: as §3, §4

[3] = 0.3 mg/kg i.g. with scopolamine 0.75 mg/kg s.c., vs scopolamine alone, Dunnett's p<0.01

Row | Compound | Ki (Human α7 nAChR) [µM] | Ki (Human Ganglion) [µM] | Ki (Rat Ganglion) [µM] | Ki (Human α4β2; read-out: Human α4β2 Ki) [µM] | other results
1 | CN[C@@H](C)C/C=C/c1cnc(Cl)c(O[C@@H]2CCN(C(=O)CCC(F)(F)F)C2)c1 [Test Compound, (2S,4E)-N-methyl-5-(5-((3R)-1-(4,4,4-trifluorobutanoyl)pyrrolidin-3-yloxy)-6-chloro-3-pyridinyl)-4-penten-2-amine] |  |  |  |  | mean distance from the platform (proximity) in the probe trial [1, 3]: significantly improved performance; time spent in the target quadrant in the probe trial [1, 3]: significantly improved performance; time spent in the target quadrant in the probe trial ([1]; 3.0 mg/kg i.g. with scopolamine 0.75 mg/kg s.c., vs scopolamine alone, Dunnett's p<0.05): significantly improved performance; spatial memory performance (summary) ([1]; doses of 0.3 and 3.0 mg/kg, animals cognitively impaired by scopolamine): significantly improved spatial memory performance; overt behavioral side effects ([2]; 0.001, 0.01, 0.1 mg/kg p.o., rats): No overt behavioral side effects were observed; recognition index (% RI) compared to vehicle-treated group ([2]; all dose groups 0.001-0.1 mg/kg p.o., statistical significance at the two higher doses): improved; time investigating object B (novel) versus object A (familiar) ([2]; any dose (0.001, 0.01 or 0.1 mg/kg p.o.), recall 6 h after third daily dose): spent significantly (P<0.05) more time investigating object B (novel) than object A (familiar); MED for % RI ([2]; p.o., rats, non-parametric statistical analyses): 0.01 mg/kg; episodic memory, % RI (summary) ([2]; young rats, dose range of 0.01 to 0.1 mg/kg, strong trend at 0.001 mg/kg): facilitates episodic memory
2 | CN[C@@H](C)C/C=C/c1cnc(Cl)c(O[C@@H]2CCN(C(=O)CCC(F)(F)F)C2)c1 [drawing 62] | 55 | 7.4 | 15 |  | Ki (Human α4β2): 0.0014 µM
3 | CN[C@@H](C)C/C=C/c1cncc(O[C@@H]2CCN(C(=O)C3CCCC3)C2)c1 | 26 | 14 | 28 | 0.0074 | 
4 | CN[C@@H](C)C/C=C/c1cnc(Cl)c(O[C@@H]2CCN(C(=O)C(C)(C)C)C2)c1 | 34 | 26 | 1.1 | 0.0087 | 
5 | CN[C@@H](C)C/C=C/c1cncc(O[C@H]2CCN(C(=O)CC3CCCC3)C2)c1 | 49 | 26 | 11 | 0.0086 | 
6 | CN[C@@H](C)C/C=C/c1cnc(Cl)c(O[C@H]2CCN(C(=O)c3ccc(F)cc3)C2)c1 | 98 | 16 | 5.9 | 0.0015 | 
7 | CN[C@@H](C)C/C=C/c1cnc(Cl)c(O[C@@H]2CCN(C(=O)c3ccc(F)cc3F)C2)c1 | 22 | 6.6 | 22 | 0.0038 | 
8 | CN[C@@H](C)C/C=C/c1cncc(O[C@H]2CCN(C(=O)c3ccc(F)cc3F)C2)c1 | 47 | 3.3 | 80 | 0.029 | 
9 | CN[C@@H](C)C/C=C/c1cncc(O[C@H]2CCN(C(=O)C(C)C)C2)c1 | 36 | 20 | 5.7 | 0.0061 | 
10 | CN[C@@H](C)C/C=C/c1cncc(O[C@H]2CCN(C(=O)CCC(F)(F)F)C2)c1 | 49 | 18 | 33 | 0.011 | 
11 | CN[C@@H](C)C/C=C/c1cncc(O[C@H]2CCN(C(=O)CC(C)(C)C)C2)c1 | 65 | 12 | 21 |  | Ki (Human α4β2): 0.011 µM
12 | CN[C@@H](C)C/C=C/c1cnc(Cl)c(O[C@H]2CCN(C(=O)CC3CCCC3)C2)c1 | 36 | 2.5 | 4 | 0.0061 | 
13 | CN[C@@H](C)C/C=C/c1cncc(O[C@@H]2CCN(C(=O)C(C)(C)C)C2)c1 | 51 | 21 | 100 | 0.017 | 
14 | CN[C@@H](C)C/C=C/c1cncc(O[C@H]2CCN(C(=O)c3ccc(F)cc3)C2)c1 | 58 | 14 | 190 | 0.0052 | 
15 | CN[C@@H](C)C/C=C/c1cncc(O[C@@H]2CCN(C(=O)c3ccc(F)cc3F)C2)c1 | 41 | 3 | 19 | 0.0059 | 
16 | CN[C@@H](C)C/C=C/c1cnc(Cl)c(O[C@H]2CCN(C(=O)CCC(F)(F)F)C2)c1 | 13 | 25 | 31 |  | Ki (Human α4β2): 0.0028 µM
17 | CN[C@@H](C)C/C=C/c1cnc(Cl)c(O[C@H]2CCN(C(=O)C(C)(C)C)C2)c1 | 39 | 4.8 | 11 | 0.0067 | 
18 | CN[C@@H](C)C/C=C/c1cncc(O[C@@H]2CCN(C(=O)C(C)C)C2)c1 | 35 | 11 | 50 | 0.009 | 

From patent US20150119378A1, “AZETIDINYLOXY-, PYRROLIDINYLOXY-, AND PIPERIDINYLOXY-SUBSTITUTED METANICOTINES AS NEURONAL NICOTINIC ACETYLCHOLINE RECEPTOR LIGANDS” (priority 2013, published 2015)
